Data taken from patent US20100010002A1, “ANTICANCER USE OF CAFFEIC ACID AND ITS DERIVATIVES” (Piramal Life Sciences Limited, priority 2006, published 2010).
Where two headings read alike, the source gives them in different places.

What was measured:
Ba/F3 Bcr-Abl/Q252H = target: T1, Ba/F3 Bcr-Abl/Q252H (Homo sapiens, UniProt P00519, Q252H, cells depend on it); assay: CCK-8 assay, Ba/F3 Bcr-Abl/Q252H; format: cell-based
T1 construct: fused on or other part: P11274 (Breakpoint cluster region protein)

K562 = assay: CCK-8 cell proliferation and cytotoxicity assay, K562; format: cell-based, Human; details: read-out: Inhibitory concentration (IC50), K562
Ba/F3 Bcr-Abl/E255V = target: T2, Ba/F3 Bcr-Abl/E255V (Homo sapiens, UniProt P00519, E255V, cells depend on it); assay: CCK-8 assay, Ba/F3 Bcr-Abl/E255V; format: cell-based
T2 construct: fused on or other part: P11274 (Breakpoint cluster region protein)

Ba/F3 Bcr-Abl/Y253H = target: T3, Ba/F3 Bcr-Abl/Y253H (Homo sapiens, UniProt P00519, Y253H, cells depend on it); assay: CCK-8 assay, Ba/F3 Bcr-Abl/Y253H; format: cell-based
T3 construct: fused on or other part: P11274 (Breakpoint cluster region protein)

Ba/F3 Bcr-Abl/WT = target: T4, Ba/F3 Bcr-Abl/WT (Homo sapiens, UniProt P00519); assay: CCK-8 assay, Ba/F3 Bcr-Abl/WT; format: cell-based; details: CCK-8, 72 h, imatinib mesylate sensitive; read-out: Inhibitory concentration (IC50), Ba/F3 Bcr-Abl/WT
T4 construct: fused on or other part: P11274 (Breakpoint cluster region protein)
Text: (§1) The cell lines described in Table 3 were used to test the antiproliferative activity of test compounds.
(§2) Cell Counting Kit-8 (CCK-8) allows very convenient assay by utilizing Dojindo's highly water-soluble tetrazolium salt. CCK-8, being nonradioactive, allows sensitive colorimetric assay for the determination of number of viable cells in cell proliferation and cytotoxicity assays. The amount of the formazan dye generated by dehydrogenases in cells is directly proportional to the number of living cells. Thus, the CCK-8 assay can also be substituted for the H^3-Thymidine incorporation assay.
(§3) Plates were further incubated at 37° C., 5% CO2 incubator for 72 h. 10 μl of the CCK-8 solution was added to each well and plate was incubated for 1-4 h in the incubator. Measured the absorbance at 450 nm using a microplate reader.
(§4) A. The percent inhibition and IC50 were calculated in comparison with control values.

Ba/F3 Bcr-Abl/F359V = target: T5, Ba/F3 Bcr-Abl/F359V (Homo sapiens, UniProt P00519, F359V, cells depend on it); assay: CCK-8 assay, Ba/F3 Bcr-Abl/F359V; format: cell-based
T5 construct: fused on or other part: P11274 (Breakpoint cluster region protein)

Ba/F3 Bcr-Abl/E255K = target: T6, Ba/F3 Bcr-Abl/E255K (Homo sapiens, UniProt P00519, E255K, cells depend on it); assay: CCK-8 assay, Ba/F3 Bcr-Abl/E255K; format: cell-based
T6 construct: fused on or other part: P11274 (Breakpoint cluster region protein)

Ba/F3 Bcr-Abl/M351T = target: T7, Ba/F3 Bcr-Abl/M351T (Homo sapiens, UniProt P00519, M351T, cells depend on it); assay: CCK-8 assay, Ba/F3 Bcr-Abl/M351T; format: cell-based
T7 construct: fused on or other part: P11274 (Breakpoint cluster region protein)

Ba/F3 Bcr-Abl/Y253F = target: T8, Ba/F3 Bcr-Abl/Y253F (Homo sapiens, UniProt P00519, Y253F, cells depend on it); assay: CCK-8 assay, Ba/F3 Bcr-Abl/Y253F; format: cell-based
T8 construct: fused on or other part: P11274 (Breakpoint cluster region protein)

Ba/F3 Bcr-Abl/H396P = target: T9, Ba/F3 Bcr-Abl/H396P (Homo sapiens, UniProt P00519, H396P, cells depend on it); assay: CCK-8 assay, Ba/F3 Bcr-Abl/H396P; format: cell-based
T9 construct: fused on or other part: P11274 (Breakpoint cluster region protein)

Ba/F3 Bcr-Abl/T315I = Ba/F3 Bcr-Abl/T315I (Homo sapiens, UniProt P00519, T315I, cells depend on it)
Text: as §1, §2, §3, §4

Ba/F3 Bcr-Abl/H396R = target: T10, Ba/F3 Bcr-Abl/H396R (Homo sapiens, UniProt P00519, H396R, cells depend on it); assay: CCK-8 assay, Ba/F3 Bcr-Abl/H396R; format: cell-based
T10 construct: fused on or other part: P11274 (Breakpoint cluster region protein)

Ba/F3 Bcr-Abl/F317L = target: T11, Ba/F3 Bcr-Abl/F317L (Homo sapiens, UniProt P00519, F317L, cells depend on it); assay: CCK-8 assay, Ba/F3 Bcr-Abl/F317L; format: cell-based
T11 construct: fused on or other part: P11274 (Breakpoint cluster region protein)

Ba/F3 Bcr-Abl/M244V = target: T12, Ba/F3 Bcr-Abl/M244V (Homo sapiens, UniProt P00519, M244V, cells depend on it); assay: CCK-8 assay, Ba/F3 Bcr-Abl/M244V; format: cell-based
T12 construct: fused on or other part: P11274 (Breakpoint cluster region protein)

[1] = mouse, ba/f3 bcr-abl/t315i, 72 h
[2] = read-out: Inhibitory concentration (IC50), Ba/F3 Bcr-Abl/T315I, CCK-8, 72 h, imatinib mesylate resistant, Table 4
[3] = CCK-8, 72 h, imatinib mesylate sensitive K562

GI50 (Ba/F3 Bcr-Abl/Q252H; mouse, 72 h) [µM] | GI50 (Ba/F3 Bcr-Abl/E255V; mouse, 72 h) [µM] | GI50 (Ba/F3 Bcr-Abl/Y253H; mouse, 72 h) [µM] | GI50 (Ba/F3 Bcr-Abl/WT) [µM] | GI50 (Ba/F3 Bcr-Abl/F359V; mouse, 72 h) [µM] | GI50 (Ba/F3 Bcr-Abl/E255K; mouse, 72 h) [µM] | GI50 (Ba/F3 Bcr-Abl/M351T; mouse, 72 h) [µM] | GI50 (Ba/F3 Bcr-Abl/Y253F; mouse, 72 h) [µM] | GI50 (Ba/F3 Bcr-Abl/H396P; mouse, 72 h) [µM] | GI50 (Ba/F3 Bcr-Abl/T315I; [1]) [µM] | GI50 (Ba/F3 Bcr-Abl/T315I; [2]) [µM] | GI50 (Ba/F3 Bcr-Abl/H396R; mouse, 72 h) [µM] | GI50 (Ba/F3 Bcr-Abl/F317L; mouse, 72 h) [µM] | GI50 (Ba/F3 Bcr-Abl/M244V; mouse, 72 h) [µM] | Structure (SMILES) | IC50 (K562; Homo sapiens, K562, 72 h) [µM] | IC50 (K562; [3]) [µM] | also measured
– | – | – | 40.6 ± 16.4 | – | – | – | – | – | – | 43.1 ± 27.9 | – | – | – | CCN1CCN(C(=O)C=Cc2ccc(O)c(O)c2)CC1 [Compound 9, 3-(3,4-Dihydroxy-phenyl)-1-(4-ethyl-piperazin-1-yl)-propenone] | – | 59.5 | –
– | – | – | 2.8 ± 0.4 | – | – | – | – | – | – | 2.5 ± 1.5 | – | – | – | O=C(C=Cc1ccc(O)c(O)c1)N1CCN(Cc2ccccc2)CC1 [Compound 10, 1-(4-Benzyl-piperazin-1-yl) 3-(3,4-dihydroxy-phenyl)-propenone] | – | 18 | GI50 (Ba/F3 Bcr-Abl/Q252H): 1.5 µM; GI50 (Ba/F3 Bcr-Abl/E255V): 2.1 µM; GI50 (Ba/F3 Bcr-Abl/Y253H): 2.5 µM; GI50 (Ba/F3 Bcr-Abl/F359V): 2.6 µM; GI50 (Ba/F3 Bcr-Abl/E255K): 2.4 µM; GI50 (Ba/F3 Bcr-Abl/M351T): 2.2 µM; GI50 (Ba/F3 Bcr-Abl/Y253F): 1.1 µM; GI50 (Ba/F3 Bcr-Abl/H396P): 3.7 µM; GI50 (Ba/F3 Bcr-Abl/T315I; ba/f3 bcr-abl/t315i): 3.1 µM; GI50 (Ba/F3 Bcr-Abl/H396R): 1 µM; GI50 (Ba/F3 Bcr-Abl/F317L): 1.2 µM; GI50 (Ba/F3 Bcr-Abl/M244V): 1.3 µM
– | – | – | > 30 | – | – | – | – | – | – | > 30 | – | – | – | CN1CCC(N2CCN(C(=O)/C=C/c3ccc(O)c(O)c3)CC2)CC1 [Compound 12, (E)-3-(3,4-dihydroxy-phenyl)-1-[4-(1-methyl-piperidin-4-yl)piperazin-1-yl]-propenone] | – | > 30 | –
– | – | – | 27 ± 8.5 | – | – | – | – | – | – | 26.6 ± 6.5 | – | – | – | O=C(/C=C/c1ccc(O)c(O)c1)N1CCN(c2ccccc2)CC1 [Compound 13, (E)-3-(3,4-dihydroxy-phenyl)-1-(4-phenylpiperazin-1-yl)-propenone] | – | 33.5 | –

Second part, the compound before the results:

Structure (SMILES) | GI50 (Ba/F3 Bcr-Abl/Q252H; mouse, 72 h) [µM] | GI50 (Ba/F3 Bcr-Abl/E255V; mouse, 72 h) [µM] | GI50 (Ba/F3 Bcr-Abl/Y253H; mouse, 72 h) [µM] | GI50 (Ba/F3 Bcr-Abl/WT) [µM] | GI50 (Ba/F3 Bcr-Abl/F359V; mouse, 72 h) [µM] | GI50 (Ba/F3 Bcr-Abl/E255K; mouse, 72 h) [µM] | GI50 (Ba/F3 Bcr-Abl/M351T; mouse, 72 h) [µM] | GI50 (Ba/F3 Bcr-Abl/Y253F; mouse, 72 h) [µM] | GI50 (Ba/F3 Bcr-Abl/H396P; mouse, 72 h) [µM] | GI50 (Ba/F3 Bcr-Abl/T315I; [1]) [µM] | GI50 (Ba/F3 Bcr-Abl/T315I; [2]) [µM] | GI50 (Ba/F3 Bcr-Abl/H396R; mouse, 72 h) [µM] | GI50 (Ba/F3 Bcr-Abl/F317L; mouse, 72 h) [µM] | GI50 (Ba/F3 Bcr-Abl/M244V; mouse, 72 h) [µM] | IC50 (K562; Homo sapiens, K562, 72 h) [µM] | IC50 (K562; [3]) [µM] | also measured
O=C(O)/C=C/c1ccc(O)c(O)c1 [Compound 1, 3-(3,4-Dihydroxy-phenyl)-acrylic acid [caffeic acid]] | > 100 | > 100 | > 100 | > 100 | > 100 | > 100 | > 100 | > 100 | > 100 | > 100 | > 100 | > 100 | > 100 | > 100 | > 100 | – | –
CCOC(=O)C=Cc1ccc(O)c(O)c1 [Compound 3, 3-(3,4-Dihydroxy-phenyl)-acrylic acid ethyl ester] | 8.4 | 10.2 | 13.2 | 3.3 ± 0.9 | 13.4 | 6.7 | 8.7 | 6.4 | 16.6 | 1.1 | 2.3 ± 0.9 | 8.6 | 12.3 | 15.2 | 11.8 ± 8.8 | – | –
CCCOC(=O)C=Cc1ccc(O)c(O)c1 [Compound 5, 3-(3,4-Dihydroxy-phenyl)-acrylic acid n-propyl ester] | 1.7 | 3.4 | 3.3 | 2.4 ± 0.8 | 2.5 | 2.9 | 2.2 | 1.7 | 5.6 | 0.6 | 0.7 ± 0.1 | 1.1 | 1.6 | 3 | 13.5 ± 2.1 | – | –
CC(C)OC(=O)C=Cc1ccc(O)c(O)c1 [Compound 6, 3-(3,4-Dihydroxy-phenyl)-acrylic acid i-propyl ester] | 5.9 | 9.9 | 13.3 | 2.3 ± 1.1 | 14.6 | 5.1 | 5.1 | 5.2 | 10.8 | 2 | 1.7 ± 1.1 | 7 | 11.3 | 9.8 | 16.5 ± 2.1 | – | –
CC(C)NC(=O)/C=C/c1ccc(O)c(O)c1 [Compound 18, (E)-3-(3,4-dihydroxy-phenyl)-N-isopropyl-acrylamide] | – | – | – | 19.4 ± 8.8 | – | – | – | – | – | – | 9.5 ± 4.1 | – | – | – | 32.1 | – | –
O=C(C=Cc1ccc(O)c(O)c1)N1CCC(Cc2ccccc2)CC1 [Compound 19, 1-(4-Benzyl-piperidin-1-yl)-3-(3,4-dihydroxy-phenyl)-propenone] | – | – | – | 4.2 ± 1.3 | – | – | – | – | – | – | 2.7 ± 0.5 | – | – | – | – | 5.7 | GI50 (Ba/F3 Bcr-Abl/Q252H): 1.1 µM; GI50 (Ba/F3 Bcr-Abl/E255V): 0.8 µM; GI50 (Ba/F3 Bcr-Abl/Y253H): 1 µM; GI50 (Ba/F3 Bcr-Abl/F359V): 2.4 µM; GI50 (Ba/F3 Bcr-Abl/E255K): 1.5 µM; GI50 (Ba/F3 Bcr-Abl/M351T): 2.1 µM; GI50 (Ba/F3 Bcr-Abl/Y253F): 1 µM; GI50 (Ba/F3 Bcr-Abl/H396P): 2.8 µM; GI50 (Ba/F3 Bcr-Abl/T315I; ba/f3 bcr-abl/t315i): 2.1 µM; GI50 (Ba/F3 Bcr-Abl/H396R): 1.4 µM; GI50 (Ba/F3 Bcr-Abl/F317L): 1.1 µM; GI50 (Ba/F3 Bcr-Abl/M244V): 1 µM
